Conditions: Liquid, Vibrating tube method

CCCC[N+]1(C)CCCC1.O=S(=O)([N-]S(=O)(=O)C(F)(F)F)C(F)(F)F
mass density [kg/m3]
Conditions	293.15 K	303.15 K	313.15 K	323.15 K	333.15 K	353.15 K	393.15 K
100 kPa	1409.1	1399.3	1389.5	1379.8	1370.2	1351.5	1315.2
1000 kPa	1409.7	1399.9	1390.1	1380.4	1370.9	1352.3	1316.1
2000 kPa	1410.5	1400.7	1390.9	1381.2	1371.7	1353.2	1317.1
3000 kPa	1411.2	1401.4	1391.7	1382	1372.5	1354.1	1318.1
4000 kPa	1411.9	1402.2	1392.5	1382.8	1373.4	1354.9	1319.1
5000 kPa	1412.6	1402.9	1393.3	1383.6	1374.2	1355.8	1320
7500 kPa	1414.4	1404.8	1395.2	1385.6	1376.1	1357.9	1322.5
10000 kPa	1416.1	1406.6	1397	1387.5	1378.1	1360	1324.8
15000 kPa	1419.6	1410.1	1400.7	1391.3	1382	1364.1	1329.5
20000 kPa	1423	1413.6	1404.3	1394.9	1385.8	1368.1	1333.7
25000 kPa	1426.3	1417	1407.7	1398.5	1389.5	1371.9	1338
30000 kPa	1429.6	1420.3	1411.1	1402	1393.1	1375.7	1342.2
35000 kPa	1432.8	1423.6	1414.4	1405.4	1396.6	1379.4	1346.2

CCC[N+]1(C)CCCCC1.O=S(=O)([N-]S(=O)(=O)C(F)(F)F)C(F)(F)F
mass density [kg/m3]
Conditions	293.15 K	303.15 K	313.15 K	323.15 K	333.15 K	353.15 K	393.15 K
100 kPa	1416.9	1407.2	1397.4	1387.6	1377	1358.5	1322.3
1000 kPa	1417.6	1407.8	1398.1	1388.3	1377.8	1359.3	1323.2
2000 kPa	1418.3	1408.6	1398.9	1389.1	1378.6	1360.2	1324.3
3000 kPa	1419	1409.3	1399.5	1389.9	1379.3	1361.1	1325.3
4000 kPa	1419.6	1410	1400.2	1390.6	1380.1	1361.9	1326.2
5000 kPa	1420.3	1410.7	1401	1391.4	1380.9	1362.8	1327.3
7500 kPa	1422	1412.5	1402.8	1393.2	1382.8	1364.7	1329.7
10000 kPa	1423.8	1414.3	1404.7	1395.1	1384.8	1366.7	1331.8
15000 kPa	1427.1	1417.7	1408.2	1398.7	1388.5	1370.7	1336.3
20000 kPa	1430.4	1421.1	1411.7	1401.9	1392.3	1374.7	1340.7
25000 kPa	1433.7	1424.4	1415.1	1405	1396	1378.4	1344.8
30000 kPa	1436.8	1427.6	1418.4	1408.6	1399.5	1382.1	1348.9
35000 kPa	1439.9	1430.7	1421.7	1412.1	1403	1385.7	1353

CCC[N+]1(C)CCCC1.O=S(=O)([N-]S(=O)(=O)C(F)(F)F)C(F)(F)F
mass density [kg/m3]
Conditions	293.15 K	303.15 K	313.15 K	323.15 K	333.15 K	353.15 K	393.15 K
100 kPa	1438.6	1428.6	1418.6	1408.7	1399	1380	1343.2
1000 kPa	1439.3	1429.3	1419.3	1409.4	1399.7	1380.8	1344
2000 kPa	1440	1430	1420.1	1410.1	1400.5	1381.7	1344.9
3000 kPa	1440.7	1430.8	1420.9	1411	1401.4	1382.5	1345.8
4000 kPa	1441.4	1431.6	1421.7	1411.8	1402.2	1383.4	1346.8
5000 kPa	1442.1	1432.2	1422.5	1412.6	1403	1384.3	1347.8
7500 kPa	1444	1434.1	1424.3	1414.4	1405	1386.4	1350.2
10000 kPa	1445.8	1435.9	1426.3	1416.3	1407	1388.5	1352.5
15000 kPa	1449.2	1439.4	1429.9	1420.1	1410.8	1392.6	1357.1
20000 kPa	1452.6	1443	1433.4	1423.8	1414.6	1396.6	1361.5
25000 kPa	1456	1446.4	1436.9	1427.4	1418.3	1400.4	1365.8
30000 kPa	1459.2	1449.7	1440.3	1431	1421.9	1404.2	1370
35000 kPa	1462.3	1453	1443.6	1434.4	1425.4	1407.9	1374

CCC[n+]1cccc(C)c1.O=S(=O)([N-]S(=O)(=O)C(F)(F)F)C(F)(F)F
mass density [kg/m3]
Conditions	293.15 K	303.15 K	313.15 K	323.15 K	333.15 K	353.15 K	393.15 K
100 kPa	1454.9	1444.4	1433.9	1423.7	1413.6	1393.7	1354.8
1000 kPa	1455.6	1445.3	1434.8	1424.5	1414.4	1394.6	1355.8
2000 kPa	1456.4	1446.1	1435.6	1425.3	1415.3	1395.5	1356.9
3000 kPa	1457.1	1446.8	1436.4	1426.1	1416.1	1396.4	1357.9
4000 kPa	1457.9	1447.6	1437.3	1427	1417	1397.4	1359
5000 kPa	1458.7	1448.4	1438	1427.8	1417.8	1398	1360
7500 kPa	1460.5	1450.3	1440	1429.9	1419.8	1400.2	1362.5
10000 kPa	1462.4	1452.2	1441.9	1431.9	1421.9	1402.5	1365
15000 kPa	1466.1	1455.9	1445.7	1435.7	1425.9	1406.8	1369.7
20000 kPa	1469.6	1459.6	1449.5	1439.5	1429.9	1411	1374.3
25000 kPa	1473.1	1463.1	1453.1	1443.3	1433.7	1415.1	1378.8
30000 kPa	1476.5	1466.6	1456.7	1446.9	1437.4	1419	1383.2
35000 kPa	1479.8	1470	1460.3	1450.5	1441.1	1422.9	1387.5

CCn1cc[n+](C)c1.O=S(=O)([O-])C(F)(F)F [1-ethyl-3-methylimidazolium trifluoromethanesulfonate]
mass density [kg/m3]
Conditions	293.15 K	303.15 K	313.15 K	323.15 K	333.15 K	353.15 K	393.15 K
100 kPa	1379.6	1370.2	1361.1	1352	1342.8	1325.3	1291.1
1000 kPa	1380	1370.7	1361.6	1352.5	1343.3	1325.9	1291.7
2000 kPa	1380.6	1371.5	1362.2	1353.2	1344	1326.6	1292.4
3000 kPa	1381.1	1372.1	1362.9	1353.8	1344.6	1327.2	1293.2
4000 kPa	1381.8	1372.7	1363.5	1354.4	1345.3	1327.9	1293.9
5000 kPa	1382.5	1373.2	1364.1	1355.1	1346	1328.6	1294.5
7500 kPa	1383.9	1374.6	1365.7	1356.7	1347.6	1330.3	1296.4
10000 kPa	1385.4	1376.1	1367.3	1358.2	1349.2	1332	1298.1
15000 kPa	1388.2	1379	1370.2	1361.2	1352.3	1335.3	1302
20000 kPa	1391	1381.9	1373.1	1364.2	1355.4	1338.5	1305.2
25000 kPa	1393.7	1384.7	1376	1367.2	1358.4	1341.9	1308.7
30000 kPa	1396.4	1387.5	1378.8	1370.1	1361.4	1344.8	1312
35000 kPa	1399.1	1390.2	1381.6	1372.9	1364.3	1347.8	1315.3
